The record followed here is patent US10669284B2, “Fused thiazolopyrimidine derivatives as MNKS inhibitors” (LIFEARC, priority 2015, dated 2020).

For one assay, the target named is T1, Full-length human MNK2 (Homo sapiens, UniProt Q9HBH9, T379D).
T1 construct: GST (N); purchased Carna Biosciences 02-146; host or cells: baculovirus expression system
The assay is described as follows: MNK2 biochemical IC50 assay (Caliper Mobility Shift Assay). Particulars: read-out: P(IC50) MNK2 (converted).

The target in a further assay is T2, Full-length human MNK1 (Homo sapiens, UniProt Q9BUB5, T385D).
T2 construct: GST (N); purchased Carna Biosciences 02-145; host or cells: baculovirus expression system
T2 sequence (Q9BUB5 1-424 isoform Q9BUB5-2 T344D): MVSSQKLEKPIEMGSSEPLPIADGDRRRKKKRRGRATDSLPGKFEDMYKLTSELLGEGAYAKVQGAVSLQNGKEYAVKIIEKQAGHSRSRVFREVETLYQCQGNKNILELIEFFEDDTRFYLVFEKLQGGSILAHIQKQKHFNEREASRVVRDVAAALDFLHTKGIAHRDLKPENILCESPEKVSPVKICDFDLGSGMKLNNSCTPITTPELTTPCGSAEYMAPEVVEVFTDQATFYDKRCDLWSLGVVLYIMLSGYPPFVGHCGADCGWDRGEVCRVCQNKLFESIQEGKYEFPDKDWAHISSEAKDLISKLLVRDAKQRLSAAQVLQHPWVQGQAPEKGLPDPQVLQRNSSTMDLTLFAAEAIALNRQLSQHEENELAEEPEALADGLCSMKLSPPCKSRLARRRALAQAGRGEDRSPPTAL
The experiment in a line: MNK1 biochemical IC50 assay (Caliper Mobility Shift Assay). Particulars: read-out: P(IC50) MNK1 (converted).

The test system of assay [1] is phosphorylation of eIF4E at ser209 in MV4.11 cell line. The experiment in a line: MNK cellular activity phospho-eIF4E detection assay (Alphascreen Surefire). The following applies: Homo sapiens; MV4.11 cell line, phospho-eIF4E (ser209) Alphascreen Surefire; read-out: P(IC50) elF4E (converted). The format is cell-based. In short, it runs like this: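 AlphaScreen SureFire sandwich-immunoassay readout of phospho-eIF4E Ser209 in lysed MV4.11 cells; acceptor then donor beads, each 1.5 hr at room temperature. Signal normalised to untreated DMSO-only controls; duplicate curves, values averaged over at least 2 independent experiments.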

T1 sequence (Q9HBH9 whole entry T379D): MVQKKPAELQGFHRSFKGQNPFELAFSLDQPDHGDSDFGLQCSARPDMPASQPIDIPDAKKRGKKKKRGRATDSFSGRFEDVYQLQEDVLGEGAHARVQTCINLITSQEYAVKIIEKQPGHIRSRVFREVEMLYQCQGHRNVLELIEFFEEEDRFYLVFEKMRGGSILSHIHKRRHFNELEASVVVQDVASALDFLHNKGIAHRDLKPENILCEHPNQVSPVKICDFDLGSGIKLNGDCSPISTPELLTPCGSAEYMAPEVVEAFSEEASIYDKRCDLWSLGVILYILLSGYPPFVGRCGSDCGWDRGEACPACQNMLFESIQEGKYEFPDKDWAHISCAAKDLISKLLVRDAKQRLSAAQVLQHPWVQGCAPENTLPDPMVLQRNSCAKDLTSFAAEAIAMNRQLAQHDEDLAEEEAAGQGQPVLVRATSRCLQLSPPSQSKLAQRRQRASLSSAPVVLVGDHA

Take `CC(C)Oc1cc(F)ccc1Nc1ncnc2sc(C(=O)NCCCO)nc12` [Example 8, 7-(4-fluoro-2-isopropoxy-anilino)-N-(3-hydroxypropyl)thiazolo[5,4-d]pyrimidine-2-carboxamide]: the IC50 at Full-length human MNK2 was 50.1 nM; on Full-length human MNK1, 50.1 nM; in assay [1], 63.1 nM.

`CC(C)Oc1cc(F)ccc1Nc1ncnc2sc(C(=O)NCCC3CCN(C)CC3)nc12` [Example 37, 7-{[4-fluoro-2-(propan-2-yloxy)phenyl]amino}-N-[2-(1-methylpiperidin-4-yl)ethyl][1,3]thiazolo[5,4-d]pyrimidine-2-carboxamide]: the IC50 at Full-length human MNK2 was 39.8 nM; at Full-length human MNK1, 39.8 nM; in assay [1], 25.1 nM.

Take `NCC1CN(c2ncnc3sc(C(=O)NC4CCOCC4)nc23)c2ccccc21` (stereo not drawn) [Example 119, 7-[3-(Aminomethyl)indolin-1-yl]-N-tetrahydropyran-4-yl-thiazolo[5,4-d]pyrimidine-2-carboxamide]: the IC50 on Full-length human MNK2 was 15.8 nM; at Full-length human MNK1, 12.6 nM; in assay [1] it was 20 nM.

For the compound `CO[C@@H]1CCCC[C@H]1Oc1cc(F)ccc1Nc1ncnc2sc(C(=O)NCCCN(C)C)nc12` [Example 20, N-[3-(dimethylamino)propyl]-7-[4-fluoro-2-[(1R,2R)-2-methoxycyclohexoxy]anilino]thiazolo[5,4-d]pyrimidine-2-carboxamide], the IC50 at Full-length human MNK2 is 398 nM; at Full-length human MNK1 it was 794 nM; in assay [1] it was 316 nM.

Take `NCCC1CN(c2ncnc3sc(C(=O)NC4CC4)nc23)c2ccccc21` (stereo not drawn) [Example 164, 7-(3-(2-Aminoethyl)indolin-1-yl)-N-cyclo-propylthiazolo[5,4-d]pyrimidine-2-carboxamide]: the IC50 (on Full-length human MNK2; at Full-length human MNK1; in assay [1]) was 5.01 nM each time.

Consider `O=C(NC1CCOCC1)c1nc2c(N3CC4(CCOCC4)c4ccccc43)ncnc2s1` [Example 108, 7-spiro[indoline-3,4′-tetrahydropyran]-1-yl-N-tetrahydropyran-4-yl-thiazolo[5,4-d]pyrimidine-2-carboxamide], for which the IC50 was 39.8 nM on Full-length human MNK2, 63.1 nM at Full-length human MNK1 and 31.6 nM in assay [1].

`CN1CCC(NC(=O)c2nc3c(N4CCc5cc([N+](=O)[O-])ccc54)ncnc3s2)CC1` [Example 45, N-(1-methylpiperidin-4-yl)-7-(5-nitro-2,3-dihydro-1H-indol-1-yl)[1,3]thiazolo[5,4-d]pyrimidine-2-carboxamide]: the IC50 is 20 nM on Full-length human MNK2, 15.8 nM at Full-length human MNK1 and 31.6 nM in assay [1].

For the compound `CN(C)CCNc1nc2c(N3CCc4cc(F)ccc43)ncnc2s1` [Example 86], the IC50 on Full-length human MNK2 is 79.4 nM; at Full-length human MNK1, 63.1 nM; in assay [1], 251 nM.

As for `O=C(NCCCn1cccn1)c1nc2c(N3CCc4cc(F)ccc43)ncnc2s1` [Example 75, 7-(5-fluoroindolin-1-yl)-N-(3-pyrazol-1-ylpropyl)thiazolo[5,4-d]pyrimidine-2-carboxamide], the 50% inhibitory concentration (IC50) on Full-length human MNK2 was 3.16 nM; on Full-length human MNK1, 3.16 nM; in assay [1], 15.8 nM.

`Fc1ccc2c(c1)CCN2c1ncnc2scnc12` [Example 171, 7-(5-Fluoroindolin-1-yl)thiazolo[5,4-d]pyrimidine]: the IC50 was 63.1 nM on Full-length human MNK2, 79.4 nM at Full-length human MNK1 and 251 nM in assay [1].

Turning to `CC(C)Oc1cc(F)ccc1Nc1ncnc2sc(C(=O)NC3CNC3)nc12` [Example 28, N-(azetidin-3-yl)-7-{[4-fluoro-2-(propan-2-yloxy)phenyl]amino}[1,3]thiazolo[5,4-d]pyrimidine-2-carboxamide], the IC50 at Full-length human MNK2 was 79.4 nM; at Full-length human MNK1 it was 126 nM; in assay [1] it was 79.4 nM.

Turning to `CC1(C)CN(c2ncnc3sc(C(=O)NC4CCNCC4)nc23)c2ccccc21` [Example 162], the values for the IC50 (on Full-length human MNK2; on Full-length human MNK1; in assay [1]) were 5.01 nM, 6.31 nM and 7.94 nM, respectively.

As for `CC(C)(O)CC1CN(c2ncnc3sc(C(=O)NCC4CCNCC4)nc23)c2ccccc21` (stereo not drawn) [Example 142], the results for the IC50 (at Full-length human MNK2; on Full-length human MNK1; in assay [1]) were 15.8 nM, 15.8 nM and 10 nM, respectively.

In the case of `CC(=O)Nc1ccc2c(c1)CCN2c1ncnc2sc(C(=O)NC3CCN(C)CC3)nc12` [Example 46, 7-[5-(Acetylamino)-2,3-dihydro-1H-indol-1-yl]-N-(1-methylpiperidin-4-yl)[1,3]thiazolo[5,4-d]pyrimidine-2-carboxamide], the IC50 is 200 nM at Full-length human MNK2, 501 nM at Full-length human MNK1 and 100 nM in assay [1].

Consider `CC(C)Oc1cc(F)ccc1Nc1ncnc2scnc12` [Example 47, N-[4-fluoro-2-(propan-2-yloxy)phenyl][1,3]thiazolo[5,4-d]pyrimidin-7-amine], for which the IC50 on Full-length human MNK2 is 200 nM; on Full-length human MNK1 it was 251 nM; in assay [1], 126 nM.

Turning to `O=C(NCC1CCNCC1)c1nc2c(Nc3ccc(F)cc3OC(CF)CF)ncnc2s1` [Example 52, 7-[4-fluoro-2-[2-fluoro-1-(fluoromethyl)ethoxy]anilino]-N-(4-piperidylmethyl)thiazolo[5,4-d]pyrimidine-2-carboxamide], the figures for the IC50 (at Full-length human MNK2; at Full-length human MNK1; in assay [1]) were 63.1 nM, 63.1 nM and 100 nM, respectively.

Turning to `CC(C)Oc1cc(F)ccc1Nc1ncnc2sc(C(=O)N3CCC(CCO)CC3)nc12` [Example 11, [7-(4-fluoro-2-isopropoxy-anilino)thiazolo[5,4-d]pyrimidin-2-yl]-[4-(2 hydroxyethyl)-1-piperidyl]methanone], the IC50 on Full-length human MNK2 is 316 nM; at Full-length human MNK1, 398 nM; in assay [1], 316 nM.

On to `O=C(NCC1CCNCC1)c1nc2c(N3CCc4cc(Br)ccc43)ncnc2s1` [Example 169, 7-(5-Bromoindolin-1-yl)-N-(4-piperidylmethyl)thiazolo[5,4-d]pyrimidine-2-carboxamide], for which the IC50 is 7.94 nM at Full-length human MNK2, 7.94 nM at Full-length human MNK1 and 31.6 nM in assay [1].

Consider `CC(C)Oc1cc(F)ccc1Nc1ncnc2sc(C(=O)NCC3CNCCO3)nc12` (stereo not drawn) [Example 4, 7-(4-fluoro-2-isopropoxy-anilino)-N-(morpholin-2-ylmethyl)thiazolo[5,4-d]pyrimidine-2-carboxamide], for which the values for the IC50 (on Full-length human MNK2; on Full-length human MNK1; in assay [1]) were 39.8 nM, 50.1 nM and 100 nM, respectively.

Consider `CN(C)CCCNC(=O)c1nc2c(Nc3ccc(F)cc3O[C@@H]3CCCOC3)ncnc2s1` [Example 16, N-[3-(dimethylamino)propyl]-7-[4-fluoro-2-[(3R)-tetrahydropyran-3-yl]oxy-anilino]thiazolo[5,4-d]pyrimidine-2-carboxamide], for which the IC50 at Full-length human MNK2 was 100 nM; at Full-length human MNK1, 100 nM; in assay [1], 158 nM.

`O=C(NCC1CCNCC1)c1nc2c(N3CC(CCO)c4cc(F)ccc43)ncnc2s1` (stereo not drawn) [Example 139]: the IC50 at Full-length human MNK2 was 3.16 nM; at Full-length human MNK1 it was 2.51 nM; in assay [1] it was 31.6 nM.

Consider `NCCC1CN(c2ncnc3sc(C(=O)NCCC(F)(F)F)nc23)c2ccccc21` (stereo not drawn) [Example 167, 7-[3-(2-aminoethyl)indolin-1-yl]-N-(3,3,3-trifluoropropyl)thiazolo [5,4-d]pyrimidine-2-carboxamide], for which the IC50 is 5.01 nM on Full-length human MNK2, 7.94 nM on Full-length human MNK1 and 15.8 nM in assay [1].

Take `CC1CN(c2ncnc3sc(C(=O)NCC4CCNCC4)nc23)c2ccccc21` (stereo not drawn) [Example 146]: the values for the IC50 (at Full-length human MNK2; on Full-length human MNK1; in assay [1]) were 7.94 nM, 6.31 nM and 5.01 nM, respectively.

Turning to `CNCCCNC(=O)c1nc2c(N3CCc4ccccc43)ncnc2s1` [Example 97, 7-indolin-1-yl-N-[3-(methylamino)propyl] thiazolo[5,4-d]pyrimidine-2-carboxamide], the IC50 at Full-length human MNK2 was 7.94 nM; on Full-length human MNK1 it was 7.94 nM; in assay [1], 15.8 nM.

With `O=C(NC1COC1)c1nc2c(N3CCc4cc(F)ccc43)ncnc2s1` [Example 76, 7-(5-fluoroindolin-1-yl)-N-(oxetan-3-yl)thiazolo[5,4-d]pyrimidine-2-carboxamide], the 50% inhibitory concentration (IC50) was 3.16 nM on Full-length human MNK2, 6.31 nM on Full-length human MNK1 and 7.94 nM in assay [1].

For the compound `CC1(CO)CN(c2ncnc3sc(C(=O)NCC4CCNCC4)nc23)c2ccccc21` (stereo not drawn) [Example 140], the 50% inhibitory concentration (IC50) on Full-length human MNK2 was 6.31 nM; at Full-length human MNK1 it was 6.31 nM; in assay [1], 39.8 nM.

Consider `O=C(NCC1CCNCC1)c1nc2c(Nc3ccc4[nH]ncc4c3)ncnc2s1` [Example 50, 7-(1H-indazol-5-ylamino)-N-(4-piperidylmethyl)thiazolo[5,4-d]pyrimidine-2-carboxamide], for which the 50% inhibitory concentration (IC50) at Full-length human MNK2 was 31.6 nM; on Full-length human MNK1 it was 20 nM; in assay [1], 794 nM.

For `CNC(=O)c1nc2c(N3CC(C)c4ccccc43)ncnc2s1` (stereo not drawn) [Example 156, N-methyl-7-(3-methylindolin-1-yl)thiazolo[5,4-d]pyrimidine-2-carboxamide], the IC50 at Full-length human MNK2 was 7.94 nM; at Full-length human MNK1, 10 nM; in assay [1], 5.01 nM.

Consider `O=C(NCC1CCNCC1)c1nc2c(N3CC(CO)c4ccccc43)ncnc2s1` (stereo not drawn) [Example 135, 7-[3-(Hydroxymethyl)indolin-1-yl]-N-(4-piperidylmethyl)thiazolo[5,4-d]pyrimidine-2-carboxamide], for which the figures for the IC50 (at Full-length human MNK2; on Full-length human MNK1; in assay [1]) were 7.94 nM, 10 nM and 31.6 nM, respectively.
